{"source": "patent US10646591B2", "about": "“Imaging agents for imaging protease activity and uses thereof” (The United States of America, as represented by the …, priority 2011, dated 2020)", "key": {"[1]": {"test_system": "U87MG tumor", "experiment": "Ex vivo biodistribution in U87MG tumor-bearing mice", "details": "4 hour time point", "description": "Ex vivo imaging of excised tumor and organs further confirmed the targeting specificity and activation of the probes (data not shown). At 4 hours post-injection, the mice were sacrificed and major organ tissues and tumors were harvested, and placed on black paper for ex vivo imaging. For quantitative comparison, ROIs were drawn over tumors and the other organs, and the average signal for each area was measured. The results were presented as the average scaled signal from the organs and tumors. Values were expressed as mean±s.d. for a group of three animals.\nT/N ratios are illustrated in FIG. 12A. […] After whole-mouse imaging at a 4 hour time point, tumors and organs were carefully removed and the biodistribution of compounds 4 and 6 was evaluated (FIG. 12B)."}, "[2]": {"test_system": "MMP- and αvβ3 integrin receptor-positive U87MG tumor", "experiment": "In vivo optical imaging of U87MG tumor-bearing mice", "details": "for fluorescent signals in the tumor over time: 0.5 nmol injected", "description": "Female athymic nude mice were supplied from Harlan at 4 to 5 weeks of age. The U87MG tumor model was generated by subcutaneous injection of 5×10^6 cells in Matrigel (BD Biosciences, Sparks, Md.) into the right front flank of female athymic nude mice at a volume of about 80 μl. The mice were then used for optical studies when the tumor volume reached about 300 mm^3. All animal studies were conducted in accordance with the principles and procedures outlined in the Guide for the Care and Use of Laboratory Animals and were approved by the Institutional Animal Care and Use Committee of Clinical Center, NIH.\nOptical imaging acquirement and analysis were done using a Maestro 2.10 in vivo imaging system (CRI). […] The molar concentration of each samples were calculated by the sample weight. At 1, 2, 3, and 4 hours post-injection, the mice were subjected to optical imaging using appropriate filters for Cy5.5 and CW800. For the inhibition experiment, MMP inhibitor was intratumorally injected into tumor bearing mice 30 minutes before the imaging agent injection. After image acquisition, spectral unmixing yielded the pseudocolor images of the pure spectrum of respective dyes. Images were normalized and analyzed using Maestro software. For quantitative comparison, regions of interest (ROI) were drawn over tumors and muscle, and the average signal ([…]) for each area was measured. Values were expressed as mean±s.d. for a group of three animals.\nIt should be noted that only a limited dose of dye-labeled peptide probe like compounds 5 and 7 can be injected for whole body imaging, because of its high fluorescent background from the dye. In contrast, since fluorogenic probes are strongly quenched and a majority of the probe is activated at the target site, higher doses of the imaging agents of the present invention can be injected to enhance the ratio of region-of-interest (ROI) signal of tumor to normal tissue, muscle (T/N), at very early times. After injection, in vivo optical imaging was performed for 4 hours using a small animal imaging system (Maestro 2) equipped with appropriate filters for Cy5.5 and CW800."}, "[3]": {"test_system": "U87MG cells", "experiment": "Fluorescent microscopic study of receptor specificity in fixed U87MG cells", "format": "cell-based, human", "description": "The U87MG cell is known to have high αvβ3 integrin density on the cell surface. […] Next, receptor specificity of the probes in cell culture was verified by fluorescent microscopic studies. […] (data not shown)."}, "[4]": {"test_system": "MMP-positive SCC-7 tumor", "experiment": "In vivo NIR fluorescence imaging of SCC-7 tumor-bearing mice", "details": "intravenous, imaging for 24 hours, compared to other MMP-Pns and MMPSense 680", "description": "Squamous cell carcinoma SCC-7 were cultured in RPMI 1640 medium containing 10% (v/v) fetal bovine serum (Invitrogen, Carlsbad, Calif.) supplemented with penicillin (100 μg/ml) and streptomycin (100 μg/ml) at 37° C. with 5% CO2. The SCC-7 tumor model was developed by subcutaneous injection of 1×10^6 cells into the right front flank of female athymic nude mice (Harlan Laboratories, Indianapolis, Ind.). The mice were used for optical studies when the tumor volume reached about 300 mm^3. […]\nOptical image acquisition and analysis were done using a Maestro 2 imaging system (Cambridge Research & Instrumentation, Inc. (CRI), Woburn, Mass.). […] Images were normalized and analyzed by using Maestro software. For quantitative comparison, the regions of interest (ROI) were drawn over tumor (T) and normal tissue (N, muscle), and the average signal (×10^6 photons×cm^−2×s^−1) for each area was measured. […]\nThe MMP-Pns imaging agents used in Example 2, were then used to create a video image of the activity of MMPs in vivo. […] The MMP-P12 generated strong NIR fluorescence signals as early as 20 to 30 minutes after the probe injection and enabled clear visualization of MMPs in the tumor region thereafter."}}, "data": [{"compound": "CCN(CC)c1ccc2nc3ccc(/N=N/c4ccc(N(C)CCCC(=O)NCCCC[C@H](NC(=O)CNC(=O)[C@H](CCCNC(=N)N)NC(=O)[C@@H](NC(=O)CNC(=O)[C@H](CC(C)C)NC(=O)[C@@H]5CCCN5C(=O)CNC(=O)CCCCCN5/C(=C/C=C/C=C/C6=[N+](CC)c7ccc8c(S(=O)(=O)O)cc(S(=O)(=O)[O-])cc8c7C6(C)C)C(C)(C)c6c5ccc5c(S(=O)(=O)O)cc(S(=O)(=O)[O-])cc65)C(C)C)C(=O)NCC(=O)NCC(=O)NCCCC[C@@H]5NC(=O)[C@@H](Cc6ccc(O)cc6)NC(=O)[C@H](CC(=O)O)NC(=O)CNC(=O)[C@H](CCCNC(=N)N)NC5=O)cc4)cc3[n+](-c3ccccc3)c2c1", "note": "[compound 4]", "values": [{"measurement": "ex vivo biodistribution (site of activation)", "setting": "[1]", "result": "predominantly activated in the tumors"}, {"measurement": "NIR fluorescence signal from the tumor with MMP inhibitor", "setting": "[2]; MMP inhibitor intratumorally 30 minutes before probe", "result": "significantly reduced"}, {"measurement": "tumor uptake with excess unlabeled c(RGDyK)", "setting": "[2]; c(RGDyK) 200 nmol, 30 minutes post-injection", "result": "effectively blocked"}, {"measurement": "brightness of NIR fluorescent images", "setting": "[2]; from 1 hour post-injection", "result": "brighter NIR fluorescent images compared to compound 6"}, {"measurement": "visualization of MMP expression in MMP positive tumor", "setting": "[2]; intravenous, imaging for 4 hours", "result": "enabled visualization of MMP expression"}]}, {"compound": "CC[N+]1=C(/C=C/C=C/C=C2/N(CCCCCC(=O)NCC(=O)N3CCC[C@H]3C(=O)N[C@@H](CC(C)C)C(=O)NCC(=O)N[C@H](C(=O)N[C@@H](CCCNC(=N)N)C(=O)NCC(=O)N[C@@H](CCCCN)C(=O)NCC(=O)NCC(=O)NCCCC[C@@H]3NC(=O)[C@@H](Cc4ccc(O)cc4)NC(=O)[C@H](CC(=O)O)NC(=O)CNC(=O)[C@H](CCCNC(=N)N)NC3=O)C(C)C)c3ccc4c(S(=O)(=O)O)cc(S(=O)(=O)O)cc4c3C2(C)C)C(C)(C)c2c1ccc1c(S(=O)(=O)O)cc(S(=O)(=O)O)cc21", "note": "[compound 5]", "values": [{"measurement": "fluorescent signals on the cell membranes", "setting": "[3]; 30 minutes of incubation at 37° C.", "result": "Strong positive fluorescent signals"}, {"measurement": "binding with receptor blocking by excess c(RGDyK)", "setting": "[3]; blocking dose of c(RGDyK) 10 μM", "result": "significantly decreased"}, {"measurement": "fluorescent signals in the tumor over time", "setting": "[2]", "result": "gradually increased"}]}, {"compound": "MMP-P4: Cy5.5-GPLGVRGK(BHQ3)GG-R, R = -NH(CH2CH2O)4H", "values": [{"measurement": "onset of activation in vivo, NIR fluorescence in tumor region", "setting": "[4]", "result": "early onset of activation in vivo"}]}, {"compound": "CC1(C)C(/C=C/C2=C(Oc3ccc(S(=O)(=O)O)cc3)C(=C/C=C3/N(CCCCS(=O)(=O)O)c4ccc(S(=O)(=O)O)cc4C3(C)C)/CCC2)=[N+](CCCCCC(=O)NCCCC[C@@H]2NC(=O)[C@@H](Cc3ccc(O)cc3)NC(=O)[C@H](CC(=O)O)NC(=O)CNC(=O)[C@H](CCCNC(=N)N)NC2=O)c2ccc(S(=O)(=O)O)cc21", "note": "[compound 7]", "values": [{"measurement": "fluorescent signals in the tumor over time", "setting": "[2]", "result": "gradually increased"}]}]}
